Results on one compound are retold here after article PMC11210663 (Emerging Infectious Diseases, 2024).

One may read the IC50 as the concentration that inhibits the measured activity by half.

The experiment concerns influenza A(H1N1)pdm09 viruses tested during the 2022–23 influenza season. The format is biochemical, influenza A(H1N1)pdm09 virus. The following applies: read-out: NA inhibitors median IC50 2022–2023 (reference).

Regarding `CCC(CC)[C@H](NC(C)=O)[C@@H]1[C@H](O)[C@@H](C(=O)O)C[C@H]1N=C(N)N` [Peramivir, peramivir], the IC50 was determined as 0.07 nM.
